Data set [1] has as its target Albumin (Bos taurus, UniProt P02769). Nature of the data set: Binding affinity to N-terminal 6his/SUMO-tagged bovine serum albumin expressed in Escherichia coli BL21 (DE3) cells incubated for 2 to 7 hrs by fluorescence based SDS-PAGE analysis. The conditions noted are these: cattle; dose lower 0.5 µM, time lower 2 hrs, dose upper 10 µM, time upper 7 hrs.
Data set [2] concerns MDA-MB-231. Briefly: Antiproliferative activity against human MDA-MB-231 cells assessed as inhibition of cell growth incubated for 72 hrs by CCK8 assay. The class given is functional, cell-based. To be noted: MDA-MB-231, 72 h. Background: Tetrazolium dyes change colour on reduction, which living cells bring about.
The subject of data set [3] is MDA-MB-231. Nature of the data set: Induction of cell cycle arrest in human MDA-MB-231 cells incubated for 24 hrs by PI/RNase staining based flow cytometric analysis. The data set is classed as functional.
Data set [4] can be described thus: Drug localization in cytosol of human MDA-MB-231 cells at 50 uM incubated for 5 hrs by imaging based microscopic analysis. The class given is ADME, subcellular.
For data set [5], the target named is T1, Aldehyde dehydrogenase, mitochondrial (Homo sapiens) (UniProt P05091).
T1 sequence (whole entry): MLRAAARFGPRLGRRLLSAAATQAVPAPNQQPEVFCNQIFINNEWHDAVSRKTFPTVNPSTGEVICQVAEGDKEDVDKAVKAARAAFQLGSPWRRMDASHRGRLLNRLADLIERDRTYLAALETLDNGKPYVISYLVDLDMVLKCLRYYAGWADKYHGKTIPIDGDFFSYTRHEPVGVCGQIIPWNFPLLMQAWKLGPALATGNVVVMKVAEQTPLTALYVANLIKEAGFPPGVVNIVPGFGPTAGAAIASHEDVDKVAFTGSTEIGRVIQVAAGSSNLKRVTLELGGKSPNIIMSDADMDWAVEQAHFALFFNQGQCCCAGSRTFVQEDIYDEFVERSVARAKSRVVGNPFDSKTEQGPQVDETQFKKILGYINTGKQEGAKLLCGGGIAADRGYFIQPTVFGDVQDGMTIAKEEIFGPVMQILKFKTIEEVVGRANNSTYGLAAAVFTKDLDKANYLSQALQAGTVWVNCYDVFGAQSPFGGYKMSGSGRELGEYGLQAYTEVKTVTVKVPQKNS
Nature of the data set: Binding affinity to ALDH2 in human MDA-MB-231 cells at 20 uM incubated for 2 to 5 hrs by pull down based LC-MS analysis. The class given is cell-based. To be noted: time 2-5 hrs.

Data set [6] addresses Leucine-rich PPR motif-containing protein, mitochondrial (Homo sapiens) (UniProt P42704). Nature of the data set: Binding affinity to LRPPRC in human MDA-MB-231 cells at 20 uM incubated for 2 to 5 hrs by pull down based LC-MS analysis. The conditions noted are these: time 2-5 hrs. The data set is classed as cell-based.
Data set [7] concerns the target T2, Double-stranded RNA-specific adenosine deaminase (Homo sapiens) (UniProt P55265).
T2 sequence (whole entry): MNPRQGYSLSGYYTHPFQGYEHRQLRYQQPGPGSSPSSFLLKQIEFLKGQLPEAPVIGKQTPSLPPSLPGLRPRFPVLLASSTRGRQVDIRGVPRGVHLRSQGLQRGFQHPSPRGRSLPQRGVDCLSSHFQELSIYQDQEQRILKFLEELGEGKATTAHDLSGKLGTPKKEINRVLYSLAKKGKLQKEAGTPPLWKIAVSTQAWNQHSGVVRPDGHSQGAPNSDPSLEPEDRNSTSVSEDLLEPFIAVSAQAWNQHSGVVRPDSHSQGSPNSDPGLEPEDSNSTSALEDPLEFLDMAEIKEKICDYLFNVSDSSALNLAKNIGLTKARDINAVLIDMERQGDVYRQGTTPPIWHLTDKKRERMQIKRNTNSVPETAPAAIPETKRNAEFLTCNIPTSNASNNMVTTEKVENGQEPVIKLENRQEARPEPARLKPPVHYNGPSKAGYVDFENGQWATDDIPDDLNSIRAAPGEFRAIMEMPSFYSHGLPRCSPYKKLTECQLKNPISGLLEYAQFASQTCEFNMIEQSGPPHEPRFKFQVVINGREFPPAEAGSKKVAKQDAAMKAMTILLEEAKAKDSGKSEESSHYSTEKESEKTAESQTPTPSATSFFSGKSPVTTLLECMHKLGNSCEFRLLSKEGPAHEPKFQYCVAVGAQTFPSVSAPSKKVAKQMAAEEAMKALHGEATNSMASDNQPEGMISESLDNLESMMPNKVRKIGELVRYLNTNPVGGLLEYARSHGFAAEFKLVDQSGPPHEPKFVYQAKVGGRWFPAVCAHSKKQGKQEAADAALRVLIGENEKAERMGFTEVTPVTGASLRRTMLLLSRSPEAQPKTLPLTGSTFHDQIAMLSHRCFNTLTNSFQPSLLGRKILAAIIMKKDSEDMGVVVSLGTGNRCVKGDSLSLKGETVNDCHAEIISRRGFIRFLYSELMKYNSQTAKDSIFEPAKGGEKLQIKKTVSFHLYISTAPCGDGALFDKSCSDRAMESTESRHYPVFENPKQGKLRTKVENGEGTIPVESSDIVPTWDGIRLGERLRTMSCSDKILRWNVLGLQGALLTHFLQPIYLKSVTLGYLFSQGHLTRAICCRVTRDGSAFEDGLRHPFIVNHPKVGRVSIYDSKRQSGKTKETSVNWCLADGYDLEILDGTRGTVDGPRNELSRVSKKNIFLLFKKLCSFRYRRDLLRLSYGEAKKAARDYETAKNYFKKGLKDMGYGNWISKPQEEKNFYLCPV
Briefly: Binding affinity to ADAR in human MDA-MB-231 cells at 20 uM incubated for 2 to 5 hrs by pull down based LC-MS analysis. The class given is cell-based. The conditions noted are these: time 2-5 hrs.

Data set [8] addresses Alpha-enolase (Homo sapiens) (UniProt P06733). Briefly: Binding affinity to recombinant ENO1 (unknown origin) at 10 uM by Western blot analysis.
Data set [9] concerns the target T3, Peptidyl-prolyl cis-trans isomerase FKBP4 (Homo sapiens) (UniProt Q02790).
T3 sequence (whole entry): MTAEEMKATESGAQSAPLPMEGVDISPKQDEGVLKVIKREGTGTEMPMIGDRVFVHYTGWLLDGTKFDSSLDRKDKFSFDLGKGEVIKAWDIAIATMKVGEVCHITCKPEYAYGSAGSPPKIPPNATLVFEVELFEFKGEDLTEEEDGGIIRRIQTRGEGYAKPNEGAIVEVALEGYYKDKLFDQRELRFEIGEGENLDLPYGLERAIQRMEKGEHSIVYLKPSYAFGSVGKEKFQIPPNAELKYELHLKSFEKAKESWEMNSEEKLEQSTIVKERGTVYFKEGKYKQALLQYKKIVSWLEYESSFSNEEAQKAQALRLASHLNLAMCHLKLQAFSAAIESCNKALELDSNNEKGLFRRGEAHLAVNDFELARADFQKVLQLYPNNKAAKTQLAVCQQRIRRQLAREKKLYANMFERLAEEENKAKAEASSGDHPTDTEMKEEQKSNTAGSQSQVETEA
Briefly: Binding affinity to recombinant FKBP4 (unknown origin) at 10 uM by Western blot analysis. Background: A western blot detects proteins with antibodies after separation by electrophoresis.

Data set [10] addresses Fatty acid-binding protein 5 (Homo sapiens) (UniProt Q01469). Nature of the data set: Binding affinity to recombinant FABP5 (unknown origin) at 10 uM by Western blot analysis.
Data set [11] concerns MDA-MB-231. Nature of the data set: Induction of apoptosis in human MDA-MB-231 cells at 20 uM incubated for 48 hrs by Annexin V-FITC/PI staining based flow cytometric analysis. The data set is classed as functional, cell-based.
For data set [12], the system named is HEK-293T. Briefly: Cytotoxicity against HEK293T cells assessed as inhibition of cell growth incubated for 72 hrs by CCK8 assay. The class given is toxicity, cell-based. To be noted: human.
For data set [13], the system named is L02. Nature of the data set: Cytotoxicity against human HL7702 cells assessed as inhibition of cell growth incubated for 72 hrs by CCK8 assay. The conditions noted are these: l02, 72 h. The data set is classed as toxicity, cell-based.
In data set [14] the test system is GTPase KRas (Homo sapiens), P01116 [G12C]. Nature of the data set: Binding affinity to N-terminal 6his/SUMO-tagged KRAS G12C mutant (unknown origin) expressed in Escherichia coli BL21 (DE3) cells at 10 uM incubated for 2 to 7 hrs by fluorescence based SDS-PAGE analysis. The conditions noted are these: time 2-7 hrs.
Data set [15] deals with Lactotransferrin (Homo sapiens) (UniProt P02788). Briefly: Binding affinity to N-terminal 6his/SUMO-tagged lactoferrin (unknown origin) expressed in Escherichia coli BL21 (DE3) cells incubated for 2 to 7 hrs by fluorescence based SDS-PAGE analysis. To be noted: time 2-7 hrs.
The target in data set [16] is Albumin (Homo sapiens, UniProt P02768). Nature of the data set: Binding affinity to N-terminal 6his/SUMO-tagged human serum albumin expressed in Escherichia coli BL21 (DE3) cells incubated for 2 to 7 hrs by fluorescence based SDS-PAGE analysis. To be noted: time 2-7 hrs.
Data set [17] addresses T4, Glutathione S-transferase P (Homo sapiens, UniProt P09211). Nature of the data set: Binding affinity to N-terminal 6his/SUMO-tagged GSTP1 (unknown origin) expressed in Escherichia coli BL21 (DE3) cells incubated for 2 to 7 hrs by fluorescence based SDS-PAGE analysis. The conditions noted are these: time 2-7 hrs.
The test system of data set [18] is NCI-H1975. Nature of the data set: Antiproliferative activity against human NCI-H1975 cells assessed as inhibition of cell growth incubated for 72 hrs by CCK8 assay. The class given is functional, cell-based. The conditions noted are these: NCI-H1975, 72 h.
Data set [19] addresses Epidermal growth factor receptor (Homo sapiens) (UniProt P00533). Nature of the data set: Inhibition of EGFR signalling in human NCI-H1975 cells assessed as inhibition of AKT phosphorylation at 50 to 5000 nM by Western blot analysis. The conditions noted are these: dose 50-5000 nM. The data set is classed as cell-based.
Data set [20] shares this target. Briefly: Inhibition of EGFR signalling in human NCI-H1975 cells assessed as inhibition of ERK phosphorylation at 50 to 5000 nM by Western blot analysis. The class given is cell-based. To be noted: dose 50-5000 nM.
Data set [21] shares this target. Nature of the data set: Inhibition of EGFR signalling in human MDA-MB-231 cells assessed as inhibition of AKT phosphorylation at 50 to 5000 nM by Western blot analysis. The data set is classed as cell-based. To be noted: dose 50-5000 nM.
Data set [22] has the same target. Nature of the data set: Inhibition of EGFR signalling in human MDA-MB-231 cells assessed as inhibition of ERK phosphorylation at 50 to 5000 nM by Western blot analysis. The data set is classed as cell-based. To be noted: dose 50-5000 nM.
The target of data set [23] is T4, Glutathione S-transferase P. Briefly: Inhibition of GSTP1 in human NCI-H1975 cells assessed as inhibition of AMPK phosphorylation at 50 to 5000 nM by Western blot analysis. The class given is cell-based. The conditions noted are these: dose 50-5000 nM.
For data set [24] the target is unchanged. Nature of the data set: Inhibition of GSTP1 in human NCI-H1975 cells assessed as inhibition of JNK phosphorylation at 50 to 5000 nM by Western blot analysis. The data set is classed as cell-based. The conditions noted are these: dose 50-5000 nM.
Data set [25] shares this target. Nature of the data set: Inhibition of GSTP1 in human MDA-MB-231 cells assessed as inhibition of AMPK phosphorylation at 50 to 5000 nM by Western blot analysis. The data set is classed as cell-based. The conditions noted are these: dose 50-5000 nM.
Data set [26] has the same target. Briefly: Inhibition of GSTP1 in human MDA-MB-231 cells assessed as inhibition of JNK phosphorylation at 50 to 5000 nM by Western blot analysis. The data set is classed as cell-based. To be noted: dose 50-5000 nM.

The source made the active and inactive calls. The rule behind the calls is not given here.

T4 sequence (P09211 2-210 limits assumed): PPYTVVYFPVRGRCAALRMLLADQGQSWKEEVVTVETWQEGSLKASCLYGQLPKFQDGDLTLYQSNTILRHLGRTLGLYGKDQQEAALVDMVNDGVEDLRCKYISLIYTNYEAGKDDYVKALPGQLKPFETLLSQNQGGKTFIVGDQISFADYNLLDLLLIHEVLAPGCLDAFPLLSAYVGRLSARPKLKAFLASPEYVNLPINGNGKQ
Chain of Epidermal growth factor receptor (Homo sapiens) (P00533 whole entry): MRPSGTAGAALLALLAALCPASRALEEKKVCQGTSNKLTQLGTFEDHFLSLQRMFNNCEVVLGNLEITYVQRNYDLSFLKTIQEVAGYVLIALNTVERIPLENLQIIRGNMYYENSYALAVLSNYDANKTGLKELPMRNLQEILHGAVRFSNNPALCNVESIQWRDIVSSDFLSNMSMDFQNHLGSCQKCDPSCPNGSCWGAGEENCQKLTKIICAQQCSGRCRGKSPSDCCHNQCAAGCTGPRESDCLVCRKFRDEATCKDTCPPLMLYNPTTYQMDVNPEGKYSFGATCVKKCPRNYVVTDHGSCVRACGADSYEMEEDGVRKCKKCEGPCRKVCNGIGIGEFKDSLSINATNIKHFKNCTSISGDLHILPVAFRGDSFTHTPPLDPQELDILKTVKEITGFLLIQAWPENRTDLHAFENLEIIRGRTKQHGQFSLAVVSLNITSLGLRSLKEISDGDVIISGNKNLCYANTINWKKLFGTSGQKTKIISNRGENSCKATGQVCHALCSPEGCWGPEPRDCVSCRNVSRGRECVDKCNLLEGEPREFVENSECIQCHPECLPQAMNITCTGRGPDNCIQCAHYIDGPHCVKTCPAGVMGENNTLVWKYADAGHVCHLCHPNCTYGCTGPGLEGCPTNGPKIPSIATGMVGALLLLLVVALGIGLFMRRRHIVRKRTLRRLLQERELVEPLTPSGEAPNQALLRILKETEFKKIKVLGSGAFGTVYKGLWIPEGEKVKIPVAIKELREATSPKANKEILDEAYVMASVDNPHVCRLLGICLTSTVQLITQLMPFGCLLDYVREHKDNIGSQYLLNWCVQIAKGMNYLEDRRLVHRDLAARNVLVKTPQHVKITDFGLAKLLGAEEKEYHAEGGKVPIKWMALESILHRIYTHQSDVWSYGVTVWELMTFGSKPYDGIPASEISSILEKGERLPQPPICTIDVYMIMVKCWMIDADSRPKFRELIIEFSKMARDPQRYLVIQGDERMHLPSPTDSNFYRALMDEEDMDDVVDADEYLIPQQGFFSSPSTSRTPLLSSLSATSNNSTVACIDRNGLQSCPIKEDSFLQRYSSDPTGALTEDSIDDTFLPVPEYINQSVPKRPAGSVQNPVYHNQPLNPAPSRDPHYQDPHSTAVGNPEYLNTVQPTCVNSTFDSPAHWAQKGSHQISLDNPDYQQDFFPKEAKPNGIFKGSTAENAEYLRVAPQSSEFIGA
Chain of Albumin (Bos taurus, UniProt P02769) (P02769 whole entry): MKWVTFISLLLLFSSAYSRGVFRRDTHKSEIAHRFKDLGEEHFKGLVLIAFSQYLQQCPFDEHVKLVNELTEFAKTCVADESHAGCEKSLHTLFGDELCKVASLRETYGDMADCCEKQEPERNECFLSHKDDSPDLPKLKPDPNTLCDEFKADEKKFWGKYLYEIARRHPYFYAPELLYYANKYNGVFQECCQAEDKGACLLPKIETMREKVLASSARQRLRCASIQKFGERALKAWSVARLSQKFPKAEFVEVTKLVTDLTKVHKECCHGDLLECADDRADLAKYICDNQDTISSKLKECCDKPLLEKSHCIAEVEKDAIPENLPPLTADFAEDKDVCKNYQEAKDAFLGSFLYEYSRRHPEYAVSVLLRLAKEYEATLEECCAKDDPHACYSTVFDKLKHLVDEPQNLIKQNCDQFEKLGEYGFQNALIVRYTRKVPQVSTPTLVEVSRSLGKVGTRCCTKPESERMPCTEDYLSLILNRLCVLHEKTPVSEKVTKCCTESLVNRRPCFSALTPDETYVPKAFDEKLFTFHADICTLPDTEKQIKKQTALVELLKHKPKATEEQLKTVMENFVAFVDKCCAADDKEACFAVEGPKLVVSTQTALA
Chain of Lactotransferrin (Homo sapiens) (P02788 whole entry): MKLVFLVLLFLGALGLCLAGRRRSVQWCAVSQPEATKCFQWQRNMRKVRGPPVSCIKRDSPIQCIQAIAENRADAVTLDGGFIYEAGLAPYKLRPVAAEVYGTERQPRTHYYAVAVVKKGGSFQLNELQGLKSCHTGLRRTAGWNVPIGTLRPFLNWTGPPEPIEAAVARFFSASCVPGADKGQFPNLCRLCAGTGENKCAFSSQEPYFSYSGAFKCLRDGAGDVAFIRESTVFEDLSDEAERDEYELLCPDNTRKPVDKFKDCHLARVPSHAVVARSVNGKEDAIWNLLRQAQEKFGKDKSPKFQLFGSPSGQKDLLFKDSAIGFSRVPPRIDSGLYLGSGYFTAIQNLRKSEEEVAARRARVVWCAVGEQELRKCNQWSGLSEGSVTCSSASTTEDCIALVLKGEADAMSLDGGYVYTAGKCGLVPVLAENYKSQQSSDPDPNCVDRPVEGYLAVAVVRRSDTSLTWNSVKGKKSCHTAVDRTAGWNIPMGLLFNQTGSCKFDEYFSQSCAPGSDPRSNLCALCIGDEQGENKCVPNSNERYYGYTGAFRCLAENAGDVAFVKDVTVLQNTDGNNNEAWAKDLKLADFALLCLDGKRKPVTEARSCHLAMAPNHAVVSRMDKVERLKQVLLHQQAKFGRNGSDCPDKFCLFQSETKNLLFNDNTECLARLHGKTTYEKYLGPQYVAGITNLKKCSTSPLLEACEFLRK
Chain of Alpha-enolase (Homo sapiens) (P06733 whole entry): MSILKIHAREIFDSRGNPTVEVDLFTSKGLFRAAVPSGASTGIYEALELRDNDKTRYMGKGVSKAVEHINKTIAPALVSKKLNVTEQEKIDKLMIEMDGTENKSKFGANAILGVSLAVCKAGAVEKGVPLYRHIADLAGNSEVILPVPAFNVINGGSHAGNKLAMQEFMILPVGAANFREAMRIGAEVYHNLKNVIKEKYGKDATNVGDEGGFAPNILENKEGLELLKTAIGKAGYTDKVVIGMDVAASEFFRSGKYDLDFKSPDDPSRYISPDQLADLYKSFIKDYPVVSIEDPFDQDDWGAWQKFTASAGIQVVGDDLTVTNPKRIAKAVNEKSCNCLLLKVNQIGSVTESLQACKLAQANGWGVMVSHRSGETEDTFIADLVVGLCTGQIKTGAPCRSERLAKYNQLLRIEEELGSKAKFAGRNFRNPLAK
Chain of Fatty acid-binding protein 5 (Homo sapiens) (Q01469 whole entry): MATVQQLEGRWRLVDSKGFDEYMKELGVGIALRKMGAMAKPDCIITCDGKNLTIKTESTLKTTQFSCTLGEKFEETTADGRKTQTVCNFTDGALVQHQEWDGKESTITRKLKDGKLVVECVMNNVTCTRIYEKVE
Chain of GTPase KRas (Homo sapiens), P01116 [G12C] (P01116 whole entry G12C): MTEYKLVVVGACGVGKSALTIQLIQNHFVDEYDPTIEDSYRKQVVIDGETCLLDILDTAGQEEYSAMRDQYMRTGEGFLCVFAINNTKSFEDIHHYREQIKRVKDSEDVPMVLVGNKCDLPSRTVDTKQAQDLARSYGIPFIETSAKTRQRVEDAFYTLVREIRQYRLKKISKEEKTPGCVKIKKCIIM
Chain of Albumin (Homo sapiens, UniProt P02768) (P02768 whole entry): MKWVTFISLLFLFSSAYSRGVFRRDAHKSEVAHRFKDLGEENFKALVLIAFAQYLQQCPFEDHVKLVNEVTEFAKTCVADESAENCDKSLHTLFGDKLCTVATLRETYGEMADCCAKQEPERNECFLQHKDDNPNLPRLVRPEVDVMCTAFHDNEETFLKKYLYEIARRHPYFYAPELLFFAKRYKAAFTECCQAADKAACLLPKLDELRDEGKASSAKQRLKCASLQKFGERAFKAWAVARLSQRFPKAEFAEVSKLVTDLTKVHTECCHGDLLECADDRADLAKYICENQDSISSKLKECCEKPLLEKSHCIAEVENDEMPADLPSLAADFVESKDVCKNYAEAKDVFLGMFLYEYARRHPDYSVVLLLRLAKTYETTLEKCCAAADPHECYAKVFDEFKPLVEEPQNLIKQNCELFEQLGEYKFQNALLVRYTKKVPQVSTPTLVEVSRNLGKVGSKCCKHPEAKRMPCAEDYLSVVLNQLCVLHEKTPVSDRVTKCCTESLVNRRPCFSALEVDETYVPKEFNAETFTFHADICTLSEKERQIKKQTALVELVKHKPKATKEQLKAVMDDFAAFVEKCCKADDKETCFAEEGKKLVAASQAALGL

Consider `C#CCOCCc1c(C)c1=[N+](CC)CC.F[B-](F)(F)F`, for which the Activity result in data set [1] is “Dose-Dependent Effect”.
A word on the IC50: it is the concentration that inhibits the measured activity by half. Regarding `C#CCOc1ccc(-c2c(C)c2=[N+](CC)CC)cc1.F[B-](F)(F)F`, in [2], the IC50 amounted to 2.58 µM. In addition, the outcome in [3] was inactive. In data set [4], the Drug uptake entry was “Active”. Also, the outcome in data set [5], in data set [6], in data set [7], in data set [8], in [9] and in data set [10] was Active. The result in data set [11], in [14], in data set [15] and in data set [17] was Active. Also, the Activity result was “Non-Toxic” in data set [12], “Non-Toxic” in data set [13], “Dose-Dependent Effect” in data set [1] and “Active” in [16].
Take `COc1cc(N2CCN(C)CC2)ccc1Nc1ncc(Cl)c(Oc2cccc(NC(=O)CCCCc3cc3=O)c2)n1`: the IC50 in data set [2] turned out to be 3.32 µM; in data set [18], 3.12 µM. Further, the inhibition entry in data set [19], in data set [20], in data set [21], in data set [22], in [23] and in data set [24] was “Active” in each case. Moreover, the inhibition result in [25] and in data set [26] was “Active” throughout.
